The assay deals with JAK3 enzyme (Homo sapiens (Human), UniProt P52333). The assay is described as follows: JAK Caliper Enzyme Assay at 4 μM or 1 mM ATP. In kind it is biochemical. The procedure: JAK Caliper Enzyme Assay at […] or 1 mM ATP
Test article was solubilized in dimethyl sulfoxide (DMSO) to a stock concentration of 30 mM. An 11-point half log dilution series was created in DMSO with a top concentration of 600 μM. […] The compound plates were diluted 1 to 60 resulting in a top final assay compound concentration of 10 μM and a 2% DMSO concentration.
Test article and assay controls were added to a 384-well plate. Reaction mixtures contained 20 mM HEPES, pH 7.4, 10 mM magnesium chloride, 0.01% bovine serum albumin (BSA), 0.0005% Tween […] or 1 mM ATP and […] peptide substrate. […] The assays were initiated by the addition 1 nM JAK3 enzyme and were incubated at room temperature 75 minutes for JAK3. Enzyme concentrations and incubation times were optimized for each new enzyme preps and were modified slightly over time to ensure 20%-30% phosphorylation. The assays were stopped with a final concentration of 10 mM EDTA, 0.1% Coating Reagent and 100 mM HEPES, pH=7.4. The assay plates were placed on a Caliper Life Science Lab Chip 3000 (LC3000) instrument, and each well was sampled using appropriate separation conditions to measure the unphosphorylated and phosphorylated peptide.

The mark [1] stands for this setting: read-out: JAK3 (4 μM ATP) IC50, 4 μM ATP.
Setting [2] is: read-out: JAK3 (1 mM ATP) IC50, 1 mM ATP.

Each structure is given as a SMILES string. Like-named read-outs stand apart in the source and are kept apart here. Bounds are passed on as bounds.

Sequence of JAK3 enzyme (P52333 whole entry, species assumed): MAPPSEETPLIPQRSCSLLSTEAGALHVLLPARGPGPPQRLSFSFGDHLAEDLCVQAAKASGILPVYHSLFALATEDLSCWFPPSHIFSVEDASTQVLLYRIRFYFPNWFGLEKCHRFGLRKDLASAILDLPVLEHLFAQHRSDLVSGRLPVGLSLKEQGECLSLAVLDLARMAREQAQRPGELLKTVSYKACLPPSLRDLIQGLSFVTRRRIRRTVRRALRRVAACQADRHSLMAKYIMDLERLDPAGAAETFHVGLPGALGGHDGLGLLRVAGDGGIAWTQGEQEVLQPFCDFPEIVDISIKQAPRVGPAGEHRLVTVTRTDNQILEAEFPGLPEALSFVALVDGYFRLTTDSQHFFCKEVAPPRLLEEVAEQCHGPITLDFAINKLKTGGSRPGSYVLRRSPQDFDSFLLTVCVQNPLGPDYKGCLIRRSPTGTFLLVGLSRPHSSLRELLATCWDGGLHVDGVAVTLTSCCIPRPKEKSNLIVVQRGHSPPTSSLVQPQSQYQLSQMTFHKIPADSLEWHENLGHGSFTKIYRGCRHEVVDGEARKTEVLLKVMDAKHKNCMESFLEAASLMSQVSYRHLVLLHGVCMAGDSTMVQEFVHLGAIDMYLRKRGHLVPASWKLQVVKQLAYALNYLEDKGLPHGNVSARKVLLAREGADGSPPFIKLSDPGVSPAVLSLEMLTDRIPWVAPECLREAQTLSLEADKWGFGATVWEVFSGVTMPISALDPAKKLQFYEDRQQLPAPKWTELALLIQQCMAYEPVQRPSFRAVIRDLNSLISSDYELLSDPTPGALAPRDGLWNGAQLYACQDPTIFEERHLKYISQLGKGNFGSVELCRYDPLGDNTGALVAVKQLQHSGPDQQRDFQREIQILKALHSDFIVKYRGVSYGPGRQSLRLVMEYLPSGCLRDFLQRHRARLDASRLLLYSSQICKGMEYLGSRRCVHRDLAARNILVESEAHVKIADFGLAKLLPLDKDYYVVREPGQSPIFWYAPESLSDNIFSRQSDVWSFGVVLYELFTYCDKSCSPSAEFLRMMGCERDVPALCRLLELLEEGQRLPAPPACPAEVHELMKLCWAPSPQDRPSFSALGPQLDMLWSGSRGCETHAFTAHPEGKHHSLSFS

What is called IC50 is the concentration that gives 50% inhibition. `C=CC(=O)N1CCC[C@@H](Nc2ncnc3[nH]cc(CC(C)(C)O)c23)C1` [Example 53, (R)-1-(3-((5-(2-Hydroxy-2-methylpropyl)-7H-pyrrolo[2,3-d]pyrimidin-4-yl)amino)piperidin-1-yl)prop-2-en-1-one]: the IC50 amounted to 4 nM under setting [1] and 192 nM under setting [2]. For the compound `C=CC(=O)N1CC[C@@H](F)[C@@H](Nc2ncnc3[nH]ccc23)C1` [Example 54, 1-((3S,4R)-3-((7H-Pyrrolo[2,3-d]pyrimidin-4-yl)amino)-4-fluoropiperidin-1-yl)prop-2-en-1-one], the IC50 under setting [1] is 1.7 nM and the IC50 under setting [2] turned out to be 192 nM. Taken in the same sequence, the figures for `C=CC(=O)N1CCC[C@@H](Nc2ncnc3[nH]cc(CCO)c23)C1` [Example 55, (R)-1-(3-((5-(2-Hydroxyethyl)-7H-pyrrolo[2,3-d]pyrimidin-4-yl)amino)piperidin-1-yl)prop-2-en-1-one] were 2 nM and 203 nM. The matching figures for `C=CC(=O)N1C[C@H](Nc2ncnc3[nH]ccc23)C[C@H](N(C)C)C1` [Example 57, 1-((3R,5S)-3-((7H-Pyrrolo[2,3-d]pyrimidin-4-yl)amino)-5-(dimethylamino)piperidin-1-yl)prop-2-en-1-one]: 1.4 nM and 361 nM. With `C=CC(=O)N1C[C@@H](C#N)C[C@@H](Nc2ncnc3[nH]ccc23)C1` [Example 58, (3S,5R)-5-((7H-pyrrolo[2,3-d]pyrimidin-4-yl)amino)-1-acryloylpiperidine-3-carbonitrile], the IC50 runs as follows: under setting [1], 2.5 nM; under setting [2], 361 nM. Taken in the same sequence, the figures for `C=CC(=O)N1C[C@H](O)C[C@@H](Nc2ncnc3[nH]ccc23)C1` [Example 60, 1-((3R,5R)-3-((7H-Pyrrolo[2,3-d]pyrimidin-4-yl)amino)-5-hydroxypiperidin-1-yl)prop-2-en-1-one] were 4.2 nM and 603 nM.

Take `C=CC(=O)N1CCC[C@@H](Nc2ncnc3[nH]cc(CCC#N)c23)C1` [Example 62, 3-(4-{[(3R)-1-Acryloylpiperidin-3-yl]amino}-7H-pyrrolo[2,3-d]pyrimidin-5-yl)propanenitrile]: the IC50 under setting [1] was found to be 9 nM and the IC50 under setting [2] turned out to be 650 nM. Take `C=CC(=O)N1CCC[C@@H](Nc2nc(Nc3cccnc3)nc3[nH]ccc23)C1` [Example 63, 1-[(3R)-3-{[2-(Pyridin-3-ylamino)-7H-pyrrolo[2,3-d]pyrimidin-4-yl]amino}piperidin-1-yl]prop-2-en-1-one]: the IC50 under setting [1] was 9.1 nM and the IC50 under setting [2] stood at 672 nM. Take `C=CC(=O)N1C[C@H](Nc2ncnc3[nH]ccc23)C[C@@H](OC)C1` [Example 77, 1-[(3R,5R)-3-Methoxy-5-(7H-pyrrolo[2,3-d]pyrimidin-4-ylamino)piperidin-1-yl]prop-2-en-1-one]: the IC50 is, setting by setting: under setting [1], 15.5 nM; under setting [2], 2070 nM. As for `O=C(/C=C/CF)N1CC[C@@H]2CCN(c3ncnc4[nH]ccc34)[C@@H]2C1` [Example 87, (2E)-4-fluoro-1-[(3aS,7aS)-1-(7H-pyrrolo[2,3-d]pyrimidin-4-yl)octahydro-6H-pyrrolo[2,3-c]pyrdin-6-yl]but-2-en-1-one], the IC50 is 139 nM under setting [1] and over 10000 nM under setting [2].

With `C=CC(=O)N1C[C@H](Nc2ncnc3[nH]ccc23)C[C@@H](N(C)C)C1` [Example 88, 1-[(3R,5R)-3-(Dimethylamino)-5-(7H-pyrrolo[2,3-d]pyrimidin-4-ylamino)piperidin-1-yl]prop-2-en-1-one], the IC50 runs as follows: under setting [1], 18.2 nM; under setting [2], 3390 nM. Taken in the same sequence, the figures for `C=C(F)C(=O)N1CCC[C@@H](Nc2ncnc3[nH]ccc23)C1` [Example 91, 2-fluoro-1-[(3R)-3-(7H-pyrrolo[2,3-d]pyrimidin-4-ylamino)piperidin-1-yl]prop-2-en-1-one] were 56.5 nM and 4650 nM.

For `C/C=C/C(=O)N1CCC[C@@H](Nc2ncnc3[nH]ccc23)C1` [Example 95, (2E)-1-[(3R)-3-(7H-pyrrolo[2,3-d]pyrimidin-4-ylamino)piperidin-1-yl]but-2-en-1-one], the IC50 is 2480 nM under setting [1] and over 1000 nM under setting [2]. The matching figures for `COC(=O)C/C=C/C(=O)N1CCC[C@@H](Nc2ncnc3[nH]ccc23)C1` [Example 97, methyl (3E)-5-oxo-5-[(3R)-3-(7H-pyrrolo[2,3-d]pyrimidin-4-ylamino)piperidin-1-yl]pent-3-enoate]: 904 nM and over 10000 nM. Taken in the same sequence, the figures for `CS/C=C/C(=O)N1CCC[C@@H](Nc2ncnc3[nH]ccc23)C1` [Example 98, (2E)-3-(methylsulfanyl)-1-[(3R)-3-(7H-pyrrolo[2,3-d]pyrimidin-4-ylamino)piperidin-1-yl]prop-2-en-1-one] were 2630 nM and over 10000 nM. Taken in the same sequence, the figures for `CC/C=C(\C#N)C(=O)N1CCC[C@@H](Nc2ncnc3[nH]ccc23)C1` [Example 99, (2E)-2-{[(3R)-3-(7H-pyrrolo[2,3-d]pyrimidin-4-ylamino)piperidin-1-yl]carbonyl}pent-2-enenitrile] were 255 nM and over 10000 nM. Take `O=C(/C=C\CO)N1CCC[C@@H](Nc2ncnc3[nH]ccc23)C1` [Example 100, (2Z)-4-hydroxy-1-[(3R)-3-(7H-pyrrolo[2,3-d]pyrimidin-4-ylamino)piperidin-1-yl]but-2-en-1-one]: the IC50 is, setting by setting: under setting [1], 654 nM; under setting [2], over 10000 nM. As to `N#CC(C(=O)N1CCC[C@@H](Nc2ncnc3[nH]ccc23)C1)=C1CCOCC1` [Example 101, 3-oxo-3-[(3R)-3-(7H-pyrrolo[2,3-d]pyrimidin-4-ylamino)piperidin-1-yl]-2-(tetrahydro-4H-pyran-4-ylidene)propanenitrile], the IC50 under setting [1] stood at 881 nM and the IC50 under setting [2] was over 10000 nM. For `C/C=C\C(=O)N1CCC[C@@H](Nc2ncnc3[nH]ccc23)C1` [Example 102, (2Z)-1-[(3R)-3-(7H-pyrrolo[2,3-d]pyrimidin-4-ylamino)piperidin-1-yl]but-2-en-1-one], the IC50 under setting [1] stood at 353 nM and the IC50 under setting [2] was over 10000 nM. On to `C=CC(=O)N1CCCC(Nc2ncnc3[nH]ccc23)C1` (stereo not drawn) [Example 103, 1-[3-(7H-pyrrolo[2,3-d]pyrimidin-4-ylamino)piperidin-1-yl]prop-2-en-1-one], for which the IC50 under setting [1] was found to be 4.7 nM. On the same count and under the same terms, the value for `C=CC(=O)N1CCC[C@H](Nc2ncnc3[nH]ccc23)C1` [Example 104, 1-[(3S)-3-(7H-pyrrolo[2,3-d]pyrimidin-4-ylamino)piperidin-1-yl]prop-2-en-1-one] was 64.5 nM. In the case of `CN(C)C/C=C/C(=O)N1CCC[C@H](Nc2ncnc3[nH]ccc23)C1` [Example 106, (2E)-4-(dimethylamino)-1-[(3S)-3-(7H-pyrrolo[2,3-d]pyrimidin-4-ylamino)piperidin-1-yl]but-2-en-1-one], the IC50 under setting [1] was found to be 49.1 nM. Same read-out and setting: the value for `O=C(/C=C/c1c[nH]cn1)N1CCC[C@@H](Nc2ncnc3[nH]ccc23)C1` [Example 107, (2E)-3-(1H-imidazol-4-yl)-1-[(3R)-3-(7H-pyrrolo[2,3-d]pyrimidin-4-ylamino)piperidin-1-yl]prop-2-en-1-one] was 1160 nM. In the case of `COCCc1c[nH]c2ncnc(N[C@@H]3CCCN(C(=O)/C=C/CN(C)C)C3)c12` [Example 108, (2E)-4-(dimethylamino)-1-[(3R)-3-{[5-(2-methoxyethyl)-7H-pyrrolo[2,3-d]pyrimidin-4-yl]amino}pipendin-1-yl]but-2-en-1-one], the IC50 was 528 nM under setting [1] and over 10000 nM under setting [2]. Consider `C/C=C/C(=O)N1CCC[C@@H](Nc2ncnc3[nH]cc(CCOC)c23)C1` [Example 109, (2E)-1-[(3R)-3-{[5-(2-methoxyethyl)-7H-pyrrolo[2,3-d]pyrimidin-4-yl]amino}pipendin-1-yl]but-2-en-1-one], for which the IC50 under setting [1] came out at 2820 nM.

Turning to `C=C(C)C(=O)N1CCC[C@@H](Nc2ncnc3[nH]cc(CCOC)c23)C1` [Example 110, 1-[(3R)-3-{[5-(2-methoxyethyl)-7H-pyrrolo[2,3-d]pyrimidin-4-yl]amino}piperidin-1-yl]-2-methylprop-2-en-1-one], the IC50 under setting [1] came out at 1430 nM.

Turning to `C=CC(=O)N1CC[C@H]2CCN(c3ncnc4[nH]cc(C(C)=O)c34)[C@H]2C1` [Example 111, 1-[(3aR,7aR)-1-(5-Acetyl-7H-pyrrolo[2,3-d]pyrimidin-4-yl)octahydro-6H-pyrrolo[2,3-c]pyridin-6-yl]prop-2-en-1-one], the IC50 is 39.2 nM under setting [1] and 4740 nM under setting [2]. For `C=CC(=O)N1CC[C@@]2(C)CCN(c3ncnc4[nH]ccc34)[C@H]2C1` [Example 122, 1-((3aR,7aR)-3a-Methyl-1-(7H-pyrrolo[2,3-d]pyrimidin-4-yl)hexahydro-1H-pyrrolo[2,3-c]pyridin-6 (2H)-yl)prop-2-en-1-one], the IC50 was 75.6 nM under setting [1] and over 10000 nM under setting [2]. Taken in the same sequence, the figures for `C=CC(=O)N1C[C@H](Nc2ncnc3[nH]ccc23)CC[C@H]1CC` [Example 124, 1-[(2R,5R)-2-Ethyl-5-(7H-pyrrolo[2,3-d]pyrimidin-4-ylamino)piperidin-1-yl]prop-2-en-1-one] were 265 nM and over 10000 nM.

Consider `C=CC(=O)N1C[C@@H](Nc2ncnc3[nH]ccc23)CC[C@@H]1CC` [Example 125, 1-[(2S,5S)-2-Ethyl-5-(7H-pyrrolo[2,3-d]pyrimidin-4-ylamino)piperidin-1-yl]prop-2-en-1-one], for which the IC50 reads like this: under setting [1], 1420 nM; under setting [2], over 10000 nM.
